According to US7060709B2, “Method of treating hepatic fibrosis” (Wyeth, priority 2003, dated 2006):

What was measured:
[1] = stability of CCI-779 in parenteral cosolvent formulation; format: physicochemical; conditions: citric acid at a concentration of less than 0.01% w/v
From the text: In this embodiment, the stability of CCI-779 in parenterally acceptable alcoholic cosolvents is enhanced by addition of an antioxidant to the formulation. Acceptable antioxidants include, but are not limited to, citric acid, d,l-α-tocopherol, BHA, BHT, monothioglycerol, ascorbic acid, propyl gallate, and mixtures thereof. Generally, the parenteral formulations useful in this embodiment of the invention will contain an antioxidant component(s) in a concentration ranging from 0.001% to 1% w/v, or 0.01% to 0.5% w/v, of the cosolvent concentrate, although lower or higher concentrations may be desired. Of the antioxidants, d,l-α-tocopherol is particularly desirable and is used at a concentration of 0.01 to 0.1% w/v with a preferred concentration of 0.075% w/v of the cosolvent concentrate.
Examples of such chelating agents include, e.g., citric acid, acetic acid, and ascorbic acid (which may function as both a classic antioxidant and a chelating agent in the present formulations). Other chelating agents include such materials as are capable of binding metal ions in solution, such as ethylene diamine tetra acetic acid (EDTA), its salts, or amino acids such as glycine are capable of enhancing the stability of CCI-779. […] Optimal concentrations for the selected antioxidant(s) can be readily determined by one of skill in the art, based upon the information provided herein.

[2] = tested on: histologically diverse tumor cells; conditions: cited from earlier work
human tumor xenografts = conditions: nude mice, cited from earlier work
orthotopic glioma = conditions: nude mice; cited from earlier work
[3] = tested on: human glioblastoma cell line; conditions: human glioblastoma cell line in vitro; cited from earlier work

In the case of `CO[C@H]1C[C@@H]2CC[C@@H](C)[C@@](O)(O2)C(=O)C(=O)N2CCCC[C@H]2C(=O)O[C@H]([C@H](C)C[C@@H]2CC[C@@H](OC(=O)C(C)(CO)CO)[C@H](OC)C2)CC(=O)[C@H](C)/C=C(\C)[C@@H](O)[C@@H](OC)C(=O)[C@H](C)C[C@H](C)/C=C/C=C/C=C/1C` [CCI-779, Rapamycin 42-ester with 3-hydroxy-2-(hydroxymethyl)-2-methylpropionic acid], the “stability of CCI-779” value [1] is listed as “enhanced the stability”, the cell cycle effect ([2]; in vitro tumor cells) is listed as “arrested cells in the G1 phase” and the “growth of tumor cells” value ([2]; in vitro, CNS cancer, leukemia (T-cell), breast cancer, prostate cancer and melanoma lines among the most sensitive) is listed as “inhibit the growth”. The “growth of several human pancreatic tumors and one of two breast cancer lines” value (human tumor xenografts; in vivo) was “inhibited”, the “activity against human tumor xenografts of diverse histological types” value (human tumor xenografts; gliomas particularly sensitive) was “has activity” and the “activity in orthotopic glioma model” value (orthotopic glioma) was “active”. The “growth factor (platelet-derived)-induced stimulation” value [3] was “markedly suppressed”.
